Assay results from article PMC5908784, “Extracellular loops 2 and 3 of the calcitonin receptor selectively modify agonist binding and efficacy” (Biochemical Pharmacology, 2018).
Where a chain is given by its changes, count along the chain named. Where no end group is shown, it is not given here.

Columns and labels:
Assay in all cases: Homologous whole cell competition binding
Settings in all cases: homologous competition of 125I-sCT(8-32), whole cells, mean ± S.E.M., SEM
hCTR R362A = target: T1, hCTR R362A (Homo sapiens, UniProt P30988, R362A)
T1 construct: expressed in transfected cells
T1 sequence (P30988 25-474 R362A): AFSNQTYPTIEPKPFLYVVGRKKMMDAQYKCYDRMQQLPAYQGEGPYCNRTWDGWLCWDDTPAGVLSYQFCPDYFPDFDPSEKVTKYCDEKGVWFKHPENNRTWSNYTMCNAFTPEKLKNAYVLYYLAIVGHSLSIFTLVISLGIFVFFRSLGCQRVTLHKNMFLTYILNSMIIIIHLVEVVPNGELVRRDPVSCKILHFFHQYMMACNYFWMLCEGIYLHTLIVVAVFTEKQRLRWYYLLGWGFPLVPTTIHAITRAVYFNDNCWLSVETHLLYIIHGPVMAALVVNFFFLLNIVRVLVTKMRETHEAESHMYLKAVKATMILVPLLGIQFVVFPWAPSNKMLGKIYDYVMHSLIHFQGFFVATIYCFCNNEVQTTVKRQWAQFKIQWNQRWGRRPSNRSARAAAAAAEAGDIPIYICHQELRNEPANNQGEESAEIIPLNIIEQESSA
Experimental: (§1) Homologous radioligand competition was performed on 2.5 × 10^4 cells/well seeded into 96-well trays and cultured overnight. Cells were incubated overnight at 4 °C with two concentrations of ^125I-sCT(8-32) (between 25 and 100 pM; specific activity, 2000 Ci/mmol^9) and serial dilutions of non-iodinated sCT(8-32). Non-bound ligand was removed and bound ligand activity was measured using a γ counter (Wallac Wizard 1470 Gamma Counter, Perkin Elmer, 80% counter efficiency). Values were normalized against non-specific binding (0%) defined by the presence of 1 μM of unlabelled sCT(8-32), and total ligand bound in absence of competing sCT(8-32) (100%).
(§2) IC50 and Bmax values were estimated from competitive inhibition of ^125I-sCT(8-32) binding using a 3-parameter logistic equation (log(inhibitor versus response)) in Prism (v7; Graphpad). Data were corrected for radioligand occupancy using the Cheng-Prusoff equation in Prism; as such data are reported as pKi. Emax and EC50 were estimated from concentration-response curves using with a 3-parameter logistic equation in Prism (v7). These values are a composite of functional affinity, efficacy and stimulus response coupling. The Black and Leff operational model of agonism was applied to separate effects on pathway-specific efficacy (τ) from those that modify ligand functional affinity (pKA). Derived τ values were normalized to experimentally determined levels of cell surface expression to provide a measure of efficacy (τc) that is independent of affinity and altered cell surface receptor expression. pKi, pKA and log τc values for mutant receptors were statistically compared to those of the WT receptor using a one-way analysis of variance (ANOVA) and Dunnett’s post-test. Significance was accepted at P < 0.05.

hCTR V293A = target: T2, hCTR V293A (Homo sapiens, UniProt P30988, V293A)
T2 construct: c-Myc (N); expressed in transfected cells
T2 sequence (P30988 25-474 V293A): T1 sequence (P30988 25-474 R362A) with V269A, A338R
Experimental: as §1, §2

hCTR Y374A = target: T3, hCTR Y374A (Homo sapiens, UniProt P30988, Y374A)
T3 construct: c-Myc (N); expressed in transfected cells
T3 sequence (P30988 25-474 Y374A): T1 sequence (P30988 25-474 R362A) with A338R, Y350A
Experimental: as §1, §2

hCTR WT = target: T4, hCTR WT (Homo sapiens, UniProt P30988)
T4 construct: expressed in transfected cells
T4 sequence (P30988 25-474): T1 sequence (P30988 25-474 R362A) with A338R
Experimental: as §1, §2

With “VLGKLSQELHKLQTYPRTNTGSGTP-NH2 [sCT(8-32)]” the Ki (hCTR R362A) was 0.219 nM, the Ki (hCTR V293A) was 0.178 nM and the Ki (hCTR Y374A) was 0.148 nM. The Ki (hCTR WT) was 0.2 nM.
